Results published in US20090048258A1, “Amide Compound” (priority 2005, published 2009).
Where two headings read alike, the source gives them in different places.

Target: T1, Human DGAT1 (Homo sapiens, UniProt O75907)
T1 construct: my translation of the primer: M-G-DYKDDDD-GDRGSSRRR) (N); made in house; host or cells: Sf9 insect cells (recombinant baculovirus BAC-DGAT1, pFASTBAC1); microsome fraction
T1 sequence (O75907 1-488): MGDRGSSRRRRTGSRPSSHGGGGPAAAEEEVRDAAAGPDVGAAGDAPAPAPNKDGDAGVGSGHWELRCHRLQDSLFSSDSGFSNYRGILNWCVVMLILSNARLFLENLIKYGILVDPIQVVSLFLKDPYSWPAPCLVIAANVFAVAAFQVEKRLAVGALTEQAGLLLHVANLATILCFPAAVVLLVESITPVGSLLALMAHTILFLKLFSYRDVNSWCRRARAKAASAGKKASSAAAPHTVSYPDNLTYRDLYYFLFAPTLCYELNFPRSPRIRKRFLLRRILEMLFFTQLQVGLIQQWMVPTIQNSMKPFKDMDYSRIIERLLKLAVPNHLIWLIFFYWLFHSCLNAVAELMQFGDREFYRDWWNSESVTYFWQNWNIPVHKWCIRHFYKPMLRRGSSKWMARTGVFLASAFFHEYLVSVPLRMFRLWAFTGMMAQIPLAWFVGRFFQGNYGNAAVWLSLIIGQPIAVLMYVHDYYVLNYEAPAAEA
Test: DGAT inhibitory activity: [14C]-triglyceride synthesis by DGAT1 high expression Sf9 microsome
Type: biochemical
Conditions: 25 μM [14C]-Oleoyl-CoA, 32° C., 15 min, read-out: DGAT inhibitory activity (according to IC50)
Method in brief: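 DGAT1 was overexpressed from recombinant baculovirus in Sf9 cells, and microsomes from these cells were the enzyme source. Reactions ran in 100 mM Tris-HCl pH 7.5, 250 mM sucrose, 150 mM MgCl2 and 0.01% BSA. [14C]-triglyceride was extracted into chloroform, separated by TLC and quantified by imaging plate, with inhibition calculated against control and blank (no microsome) counts.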

[1] = Table 1, 25 μM dioleoylglycerol
[2] = Table 2, 25 μM dioleoylglycerol

Structure (SMILES)	IC50 [1] [nM]	IC50 [2] [nM]
CCOC(=O)Cc1ccc(C(=O)CCC(=O)Nc2nc(-c3ccccc3)c(Cc3ccccc3)s2)cc1 [Example 34]	50 to 500	–
COc1cc2c(cc1OC)C(=O)[C@H](CC(=O)Nc1nc(-c3ccccc3)c(Cc3ccccc3)s1)C2 (stereo in doubt) [Example 6, N-(5-benzyl-4-phenyl-1,3-thiazol-2-yl)-2-(5,6-dimethoxy-1-oxo-2,3-dihydro-1H-inden-2-yl)acetamide]	10 to 50	–
CCOc1ccc(C(=O)CCC(=O)Nc2ccc(CN3CCOCC3)c(-c3ccccc3)c2)cc1OCC [Example 39, 4-(3,4-diethoxyphenyl)-N-(6-(morpholin-4-ylmethyl)biphenyl-3-yl]-4-oxobutanamide]	500 to 10000	–
O=C(O)/C=C/c1cccc(-c2cc(NC(=O)CCC(=O)c3ccc4c(c3)CCO4)nc(-c3ccccc3)c2)c1 [Example 174, (2E)-3-[3-(2-{[4-(2,3-dihydro-1-benzofuran-5-yl)-4-oxobutanoyl]amino)-6-phenylpyridin-4-yl)phenyl]acrylic acid]	–	500 to 10000
CCOc1ccc(C(=O)CCC(=O)Nc2cc(-c3ccccc3)c3ccccc3n2)cc1 [Example 79, 4-(4-ethoxyphenyl)-4-oxo-N-(4-phenylquinolin-2-yl)butanamide]	–	10 to 50
CCOc1ccc(C(=O)CCC(=O)Nc2cc(-c3ccc(CN4CCOCC4)cc3)cc(-c3ccccc3)n2)cc1OCC [Example 130, 4-(3,4-diethoxyphenyl)-N-{4-[4-(morpholin-4-ylmethyl)phenyl]-6-phenylpyridin-2-yl}-4-oxobutanamide]	–	500 to 10000
CCOc1ccc(C(=O)NCCNC(=O)c2cc(-c3ccccc3)n(-c3ccc(OC)cc3)c2C)cc1 [Example 64, N-{2-[(4-ethoxybenzoyl)amino]ethyl}-1-(4-methoxyphenyl)-2-methyl-5-phenyl-1H-pyrrole-3-carboxamide]	50 to 500	–
CCOC(=O)/C=C/c1cc(C(=O)CCC(=O)Nc2nc(-c3ccccc3)c(Cc3ccccc3)s2)ccc1OCC [Example 30, ethyl (2E)-3-(5-{4-[(5-benzyl-4-phenyl-1,3-thiazol-2-yl)amino]-4-oxobutanoyl}-2-ethoxyphenyl)acrylate]	10 to 50	–
CCOc1ccc(C(=O)CCC(=O)Nc2cc(-c3ccccc3)c(CC3CCCCC3)s2)cc1OCC [Example 46, N-(5-(cyclohexylmethyl)-4-phenyl-2-thienyl)-4-(3,4-diethoxyphenyl)-4-oxobutanamide]	50 to 500	–
O=C(CCC(=O)c1ccc2c(c1)OCCCO2)Nc1nc(-c2ccccc2)c(Cc2ccccc2)s1 [Example 68, N-(5-benzyl-4-phenyl-1,3-thiazol-2-yl)-4-(3,4-dihydro-2H-1,5-benzodioxepin-7-yl)-4-oxobutanamide]	–	10 to 50
O=C(O)CCc1ccc(-c2cc(NC(=O)CCC(=O)c3ccc4c(c3)CCO4)nc(-c3ccccc3)c2)cc1 [Example 157, 3-[4-(2-{[4-(2,3-dihydro-1-benzofuran-5-yl)-4-oxobutanoyl]amino}-6-phenylpyridin-4-yl)phenyl]propanoic acid]	–	500 to 10000
O=C(CCC(=O)c1ccc2c(c1)CCCC2)Nc1nc(-c2ccccc2)c(Cc2ccccc2)s1 [Example 7, N-(5-benzyl-4-phenyl-1,3-thiazol-2-yl)-4-oxo-4-(5,6,7,8-tetrahydronaphthalen-2-yl)butanamide]	≤ 10	–
O=C(CCC(=O)c1ccc2c(c1)CCO2)Nc1nc(-c2ccccc2)c(Cc2ccccc2)s1 [Example 27, N-(5-benzyl-4-phenyl-1,3-thiazol-2-yl)-4-(2,3-dihydro-1-benzofuran-5-yl)-4-oxobutanamide]	≤ 10	–
O=C(O)COc1ccc(C(=O)CCC(=O)Nc2nc(-c3ccccc3)c(Cc3ccccc3)s2)cc1 [Example 38]	500 to 10000	–
COc1ccc(C(=O)CCC(=O)Nc2cc(-c3ccccc3)c(Cc3ccccc3)s2)cc1CCCO [Example 54, N-(5-benzyl-4-phenyl-2-thienyl)-4-[3-(3-hydroxypropyl)-4-methoxyphenyl]-4-oxobutanamide]	50 to 500	–
O=C(CCC(=O)c1ccc2c(c1)CCCC2)Nc1cc(-c2ccccc2)c(Cc2ccccc2)s1 [Example 99, N-(5-benzyl-4-phenyl-2-thienyl)-4-oxo-4-(5,6,7,8-tetrahydronaphthalen-2-yl)butanamide]	–	50 to 500
O=C(CCC(=O)c1ccc2c(c1)CCO2)Nc1cc(-c2ccccc2C(=O)O)cc(-c2ccccc2)n1 [Example 180, 2-(2-{[4-(2,3-dihydro-1-benzofuran-5-yl)-4-oxobutanoyl]amino}-6-phenylpyridin-4-yl)benzoic acid]	–	500 to 10000
CN(C)c1ccc(-c2cc(NC(=O)CCC(=O)c3ccc4c(c3)CCO4)nc(-c3ccccc3)c2)cc1 [Example 162, 4-(2,3-dihydro-1-benzofuran-5-yl)-N-{4-[4-(dimethylamino)phenyl]-6-phenylpyridin-2-yl}-4-oxobutanamide]	–	50 to 500
CCCCOc1cccc(-c2cc(NC(=O)CCC(=O)c3ccc(OCC)c(OCC)c3)nc(-c3ccccc3)c2)c1 [Example 135, N-[4-(3-butoxyphenyl)-6-phenylpyridin-2-yl]-4-(3,4-diethoxyphenyl)-4-oxobutanamide]	–	500 to 10000
CCOc1ccc(C(=O)CCC(=O)Nc2cnn(Cc3ccccc3)c2-c2ccccc2)cc1OCC [Example 21, N-(1-benzyl-5-phenyl-1H-pyrazol-4-yl)-4-(3,4-diethoxyphenyl)-4-oxobutanamide]	500 to 10000	–
COc1ccc(C(=O)CCC(=O)Nc2cc(-c3ccccc3)c(Cc3ccccc3)s2)cc1CCCOC(C)=O [Example 53, 3-(5-{4-[(5-benzyl-4-phenyl-2-thienyl)amino]-4-oxobutanoyl}-2-methoxyphenyl)propyl acetate]	50 to 500	–

The next lines start with the values.

IC50 [1] [nM]	IC50 [2] [nM]	Structure (SMILES)
50 to 500	–	CCOc1ccc(C(=O)CCC(=O)Nc2ncc(-c3ccccc3)cc2-c2ccccc2)cc1OCC [Example 13, 4-(3,4-diethoxyphenyl)-N-(3,5-diphenylpyridin-2-yl)-4-oxobutanamide]
–	≤ 10	CCOc1ccc(C(=O)CCC(=O)Nc2cc(-c3ccccc3C#N)cc(-c3ccccc3)n2)cc1OCC [Example 144, N-[4-(2-cyanophenyl)-6-phenylpyridin-2-yl]-4-(3,4-diethoxyphenyl)-4-oxobutanamide]
–	10 to 50	CCOc1ccc(C(=O)CCC(=O)Nc2cc(-c3ccccc3)c3ccc(CCC(=O)OC(C)(C)C)cc3n2)cc1OCC [Example 87, tert-butyl 3-(2-{[4-(3,4-diethoxyphenyl)-4-oxobutanoyl]amino}-4-phenylquinoline-7-yl)propanoate]
–	10 to 50	CCOc1ccc(C(=O)CCC(=O)Nc2cc(-c3ccc(C(N)=O)cc3)cc(-c3ccccc3)n2)cc1OCC [Example 128, 4-(2-{[4-(3,4-diethoxyphenyl)-4-oxobutanoyl]amino}-6-phenylpyridin-4-yl)benzamide]
10 to 50	–	CCOc1ccc(C(=O)CCC(=O)Nc2cc(-c3ccccc3)cc(-c3ccccc3)n2)cc1OCC [Example 11, 4-(3,4-diethoxyphenyl)-N-(4,6-diphenylpyridin-2-yl)-4-oxobutanamide]
–	50 to 500	CCOc1ccc(C(=O)CCC(=O)Nc2cc(-c3ccccc3)cc(Cc3ccccc3)n2)cc1OCC [Example 95, N-(6-benzyl-4-phenylpyridin-2-yl)-4-(3,4-diethoxyphenyl)-4-oxobutanamide]
–	50 to 500	CCOc1ccc(C(=O)CCC(=O)Nc2cc(-c3ccc4c(c3)OCO4)cc(-c3ccccc3)n2)cc1OCC [Example 120, N-[4-(1,3-benzodioxol-5-yl)-6-phenylpyridin-2-yl]-4-(3,4-diethoxyphenyl)-4-oxobutanamide]
–	500 to 10000	CCOc1ccc(C(=O)CCC(=O)Nc2cc(-c3cccc(C(=O)O)c3)cc(-c3ccccc3)n2)cc1OCC [Example 138, 3-(2-{[4-(3,4-diethoxyphenyl)-4-oxobutanoyl]amino}-6-phenylpyridin-4-yl)benzoic acid]
–	500 to 10000	CCOc1ccc(C(=O)CCC(=O)Nc2cc(-c3cccc(CCC(=O)O)c3)cc(-c3ccccc3)n2)cc1OCC [Example 141, 3-[3-(2-{[4-(3,4-diethoxyphenyl)-4-oxobutanoyl]amino}-6-phenylpyridin-4-yl)phenyl]propanoic acid]
–	50 to 500	CCOc1ccc(C(=O)CCC(=O)Nc2cc(-c3cccc(OC)c3)cc(-c3ccccc3)n2)cc1OCC [Example 106, 4-(3,4-diethoxyphenyl)-N-[4-(3-methoxyphenyl)-6-phenylpyridin-2-yl]-4-oxobutanamide]
–	50 to 500	CCOc1ccc(C(=O)CCC(=O)Nc2cc(-c3ccc(N(C)C)cc3)cc(-c3ccccc3)n2)cc1OCC [Example 131, 4-(3,4-diethoxyphenyl)-N-{4-[4-(dimethylamino)phenyl]-6-phenylpyridin-2-yl}-4-oxobutanamide]
–	10 to 50	CCOc1ccc(C(=O)CCC(=O)Nc2cc(-c3ccc(CO)cc3)cc(-c3ccccc3)n2)cc1OCC [Example 124, 4-(3,4-diethoxyphenyl)-N-{4-[4-(hydroxymethyl)phenyl]-6-phenylpyridin-2-yl}-4-oxobutanamide]
